Assay: method code SF-AS, from DOI: 10.1248/cpb.30.4175, PMID: 7165882

Compound | logP
CN(C)C(=O)OCc1ccc(OCc2ccccc2)cc1 | 3.27
CN(C)C(=O)OCc1ccccc1 | 2.16
CN(C)C(=O)OCc1ccc(I)cc1 | 3.32
CN(C)C(=O)OCc1ccc([N+](=O)[O-])cc1 | 1.95
CN(C)C(=O)OCc1cccc(Cl)c1 | 2.82
COc1ccc(COC(=O)N(C)C)cc1 | 2.2
CN(C)C(=O)OCc1ccc(F)cc1 | 2.3
CN(C)C(=O)OCc1ccc(Br)cc1 | 3.01
CN(C)C(=O)OCc1ccc(C#N)cc1 | 1.67
CN(C)C(=O)OCc1ccc(OC(=O)N(C)C)cc1 | 1.59
COc1cccc(COC(=O)N(C)C)c1 | 2.09
CN(C)C(=O)OCc1ccc(Cl)cc1 | 2.93
Cc1ccc(COC(=O)N(C)C)cc1 | 2.63

Reference: the SangsterLogP compilation
